Data on two compounds can be found in PMC6548519 (Nature chemical biology, 2019).

Broadly, the IC50 is the point on the concentration scale where inhibition reaches its midpoint. High values mean weaker potency in that assay, low ones greater potency in that assay.

One test has as its target T1, FAAH-4 (Caenorhabditis elegans, UniProt Q9U217).
T1 sequence (Q9U217 1-647): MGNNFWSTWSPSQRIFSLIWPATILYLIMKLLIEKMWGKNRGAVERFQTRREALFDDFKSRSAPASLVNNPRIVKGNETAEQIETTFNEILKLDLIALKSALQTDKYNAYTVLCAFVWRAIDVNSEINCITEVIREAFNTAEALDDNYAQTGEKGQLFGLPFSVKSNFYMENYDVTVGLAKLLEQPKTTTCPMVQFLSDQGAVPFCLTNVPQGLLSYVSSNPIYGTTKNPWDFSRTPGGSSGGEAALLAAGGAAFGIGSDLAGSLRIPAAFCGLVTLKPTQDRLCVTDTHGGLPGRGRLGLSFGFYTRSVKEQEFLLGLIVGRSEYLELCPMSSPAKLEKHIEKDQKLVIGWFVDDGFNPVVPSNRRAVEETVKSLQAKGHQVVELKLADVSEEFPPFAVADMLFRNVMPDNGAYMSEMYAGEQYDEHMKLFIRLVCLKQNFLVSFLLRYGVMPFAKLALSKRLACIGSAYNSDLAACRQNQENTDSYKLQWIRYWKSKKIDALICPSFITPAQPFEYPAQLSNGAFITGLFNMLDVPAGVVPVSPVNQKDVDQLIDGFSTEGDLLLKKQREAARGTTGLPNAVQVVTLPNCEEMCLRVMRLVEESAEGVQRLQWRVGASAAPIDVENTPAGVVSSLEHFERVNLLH
Type of test: biochemical.

The next test has as its target T2, FAAH-1 (Caenorhabditis elegans, UniProt Q17449).
T2 sequence (Q17449 15-572): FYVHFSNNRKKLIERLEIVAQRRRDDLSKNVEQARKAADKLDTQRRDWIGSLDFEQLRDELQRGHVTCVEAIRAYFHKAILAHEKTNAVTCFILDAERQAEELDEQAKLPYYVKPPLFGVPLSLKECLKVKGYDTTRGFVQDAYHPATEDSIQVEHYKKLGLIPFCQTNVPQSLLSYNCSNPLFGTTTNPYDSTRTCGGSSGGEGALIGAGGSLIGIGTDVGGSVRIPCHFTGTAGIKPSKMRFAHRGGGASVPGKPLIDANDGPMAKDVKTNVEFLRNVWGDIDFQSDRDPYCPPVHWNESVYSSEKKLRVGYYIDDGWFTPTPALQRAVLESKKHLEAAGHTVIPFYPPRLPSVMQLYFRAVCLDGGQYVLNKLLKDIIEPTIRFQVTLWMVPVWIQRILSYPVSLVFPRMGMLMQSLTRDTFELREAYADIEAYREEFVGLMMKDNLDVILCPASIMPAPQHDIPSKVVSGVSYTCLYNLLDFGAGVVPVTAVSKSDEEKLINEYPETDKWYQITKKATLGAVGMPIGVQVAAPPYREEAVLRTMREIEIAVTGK
The test is described as follows: MS-based competitive ABPP of worms treated in vivo. Format: cell-based.

As to `O=C(Oc1ccc([N+](=O)[O-])cc1)N1CCC(C(O)(c2ccc3c(c2)OCO3)c2ccc3c(c2)OCO3)CC1` [compound 1, JZL184], at FAAH-4, the half-maximal inhibitory concentration (IC50) was 11 µM. For the compound `NC(=O)c1cccc(-c2cccc(OC(=O)NC3CCCCC3)c2)c1` [compound 6, URB597], the “MS-based competitive ABPP of worms treated in vivo (50 μM)” value at FAAH-1 is reported as “URB597 also strongly engaged C. elegans FAAH-1 in vivo”.
